Reference: patent US12564598B2, “Nitric oxide-sensitive hydrogel” (POSTECH RESEARCH AND BUSINESS DEVELOPMENT FOUNDATION, priority 2021, dated 2026)

Experiment: Degradation of crosslinking agent after incubation in saturated NO solution (1H NMR, FT-IR, UV-Vis)
Assay type: physicochemical
Details: incubation in a saturated NO solution; primary amine peak disappeared, benzotriazole formed
Excerpt: The mechanism by which the above synthesized crosslinking agent DA-NOCCL reacts with nitric oxide to degrade and the ^1H NMR, FT-IR, and UV-Vis absorption data confirming this are shown in FIGS. 4 and 5.

In the case of `C#CCCC(=O)Nc1ccc(NC(=O)CCC#C)c(N)c1` [DA-NOCCL], the “degradation in response to NO” value is reported as “can be degraded in response to NO”.
